What was measured:
AHR [1] = molecular target: T1, AHR (Homo sapiens, UniProt P35869); assay: In vitro assay 2: agonism in human cell line (transactivation assay)
T1 sequence (P35869 11-848): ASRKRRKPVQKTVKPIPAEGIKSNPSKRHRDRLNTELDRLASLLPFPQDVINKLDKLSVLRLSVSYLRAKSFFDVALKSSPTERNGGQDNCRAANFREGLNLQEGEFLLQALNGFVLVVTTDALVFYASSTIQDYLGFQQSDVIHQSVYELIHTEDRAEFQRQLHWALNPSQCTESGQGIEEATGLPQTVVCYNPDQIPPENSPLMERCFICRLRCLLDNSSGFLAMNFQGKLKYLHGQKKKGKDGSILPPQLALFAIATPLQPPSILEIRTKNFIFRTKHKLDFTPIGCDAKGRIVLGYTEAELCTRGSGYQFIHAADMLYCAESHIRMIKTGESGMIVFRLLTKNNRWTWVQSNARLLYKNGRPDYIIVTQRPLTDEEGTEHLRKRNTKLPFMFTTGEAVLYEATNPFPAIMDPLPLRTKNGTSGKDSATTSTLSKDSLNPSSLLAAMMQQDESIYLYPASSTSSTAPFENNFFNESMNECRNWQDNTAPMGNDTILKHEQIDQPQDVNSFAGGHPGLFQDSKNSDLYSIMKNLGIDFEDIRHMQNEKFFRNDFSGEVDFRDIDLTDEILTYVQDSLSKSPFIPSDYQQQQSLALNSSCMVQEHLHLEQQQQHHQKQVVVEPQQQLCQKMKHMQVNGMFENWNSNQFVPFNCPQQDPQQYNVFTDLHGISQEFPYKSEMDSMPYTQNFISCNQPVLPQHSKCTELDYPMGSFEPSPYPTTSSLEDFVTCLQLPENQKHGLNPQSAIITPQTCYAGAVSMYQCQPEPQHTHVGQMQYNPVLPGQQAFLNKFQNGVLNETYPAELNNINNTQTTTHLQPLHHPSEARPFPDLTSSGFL

AHR [2] = molecular target: T1, AHR; assay: In vitro assay 1: antagonism in human cell line (transactivation assay, kynurenic acid prestimulated); conditions: Assay 1: AHR-luc Hum Antagonism IC50 [M], 150 μM kynurenic acid, 20 hours, firefly luciferase
[3] = Assay 2: AHR-luc Hum Agonism IC50 [M], no kynurenic acid, 20 hours, firefly luciferase
[4] = read-out: Assay 2: AHR-luc Hum Agonism IC50, no kynurenic acid, 20 hours, firefly luciferase

Row | IC50 (AHR [1]; [3]) [M] | IC50 (AHR [2]) [M] | IC50 (AHR [1]; [4]) [M] | SMILES
1 | > 2e-05 | 2.26e-08 |  | O=C(NCC(O)C(F)F)c1cc(-c2ccc(C(F)(F)F)cc2)nn(-c2cccc(F)c2)c1=O (racemic) [Example 261, N-[(2RS)-3,3-Difluoro-2-hydroxypropyl]-2-(3-fluorophenyl)-3-oxo-6-[4-(trifluoromethyl)phenyl]-2,3-dihydropyridazine-4-carboxamide]
2 | > 2e-05 | 2.7e-07 |  | O=C(NCC(O)C(F)(F)F)c1cc(-c2ccc(Cl)c(F)c2)nn(-c2cc(F)cc(F)c2)c1=O (single isomer, unassigned) [Example 404, 6-(4-chloro-3-fluorophenyl)-2-(3,5-difluorophenyl)-3-oxo-N-(3,3,3-trifluoro-2-hydroxypropyl)-2,3-dihydropyridazine-4-carboxamide]
3 | > 2e-05 | 1.98e-08 |  | COc1ccc(-c2cc(C(=O)N[C@@H]3CCCC[C@@H]3O)c(=O)n(-c3cccc(F)c3)n2)cc1 (relative stereo) [Example 106, 2-(3-Fluorophenyl)-N-(cis-2-hydroxycyclohexyl)-6-(4-methoxyphenyl)-3-oxo-2,3-dihydropyridazine-4-carboxamide]
4 | > 2e-05 | 4.12e-07 |  | O=C(NC(CO)C1CCC1)c1cc(-c2ccc(Cl)cc2)nn(-c2cccc(F)c2)c1=O (single isomer, unassigned; (+)) [Example 210, (+)-6-(4-Chlorophenyl)-N-(1-cyclobutyl-2-hydroxyethyl)-2-(3-fluorophenyl)-3-oxo-2,3-dihydropyridazine-4-carboxamide]
5 | > 2e-05 | > 2e-05 |  | O=C(NC(CO)C(F)(F)F)c1cc(-c2ccc(Cl)cc2)nn(-c2cccc(F)c2)c1=O (single isomer, unassigned; (-)) [Example 98, (−)-6-(4-Chlorophenyl)-2-(3-fluorophenyl)-3-oxo-N-(1,1,1-trifluoro-3-hydroxypropan-2-yl)-2,3-dihydropyridazine-4-carboxamide]
6 | > 2e-05 | 1.8e-07 |  | O=C(NC[C@H](O)C(F)(F)F)c1cc(-c2ccc(CF)cc2)nn(-c2cccc(F)c2)c1=O [Example 397, 6-[4-(fluoromethyl)phenyl]-2-(3-fluorophenyl)-3-oxo-N-[(2S)-3,3,3-trifluoro-2-hydroxypropyl]-2,3-dihydropyridazine-4-carboxamide]
7 | > 2e-05 | 4.44e-09 |  | CC(C)[C@@H](CO)NC(=O)c1cc(-c2ccc(C(F)F)cc2)nn(-c2cccc(F)c2)c1=O [Example 91, 6-[4-(Difluoromethyl)phenyl]-2-(3-fluorophenyl)-N-[(2S)-1-hydroxy-3-methylbutan-2-yl]-3-oxo-2,3-dihydropyridazine-4-carboxamide]
8 | > 2e-05 | 1.7e-07 |  | C[C@@H](CO)NC(=O)c1cc(-c2ccc(OC(F)F)cc2)nn(-c2cccc(F)c2)c1=O [Example 155, 6-[4-(Difluoromethoxy)phenyl]-2-(3-fluorophenyl)-N-[(2S)-1-hydroxypropan-2-yl]-3-oxo-2,3-dihydropyridazine-4-carboxamide]
9 |  | 1e-07 | > 2e-05 | O=C(NC(CO)C1CC1)c1cc(-c2ccc(C(F)(F)F)cc2)nn(-c2cccc(F)c2)c1=O (single isomer, unassigned; (+)) [Example 352, (+)-N-(1-cyclopropyl-2-hydroxyethyl)-2-(3-fluorophenyl)-3-oxo-6-[4-(trifluoromethyl)phenyl]-2,3-dihydropyridazine-4-carboxamide]
10 | > 2e-05 | 6.25e-08 |  | CC(CCO)NC(=O)c1cc(-c2ccc(Cl)cc2)nn(-c2cccc(F)c2)c1=O (racemic) [Example 206, 6-(4-Chlorophenyl)-2-(3-fluorophenyl)-N-[(2RS)-4-hydroxybutan-2-yl]-3-oxo-2,3-dihydropyridazine-4-carboxamide]
11 | > 2e-05 | 5.88e-07 |  | C[C@H](O)[C@H](C)NC(=O)c1cc(-c2ccc(Cl)cc2)nn(-c2cc(Cl)cc(Cl)c2)c1=O (relative stereo) [Example 312, 6-(4-Chlorophenyl)-2-(3,5-dichlorophenyl)-N-[(2S,3S)-3-hydroxybutan-2-yl]-3-oxo-2,3-dihydropyridazine-4-carboxamide]
12 | > 2e-05 | 2.22e-07 |  | O=C(NC(CO)C1CCOC1)c1cc(-c2ccc(Cl)c(Cl)c2)nn(-c2cccc(F)c2)c1=O (stereo not shown) [Example 307, 6-(3,4-Dichlorophenyl)-2-(3-fluorophenyl)-N-[2-hydroxy-1-(tetrahydrofuran-3-yl)ethyl]-3-oxo-2,3-dihydropyridazine-4-carboxamide]
13 | > 2e-05 | 6.9e-07 |  | CN1C[C@H](O)[C@H](NC(=O)c2cc(-c3ccc(Cl)cc3)nn(-c3cccc(F)c3)c2=O)C1 (relative stereo) [Example 388, 6-(4-chlorophenyl)-2-(3-fluorophenyl)-N-[cis-4-hydroxy-1-methylpyrrolidin-3-yl]-3-oxo-2,3-dihydropyridazine-4-carboxamide]
14 | > 2e-05 | 3.54e-09 |  | CC(O)C(NC(=O)c1cc(-c2ccc(C(F)(F)F)cc2)nn(-c2cccc(F)c2)c1=O)C(F)(F)F (single isomer, unassigned) [Example 349, 2-(3-fluorophenyl)-3-oxo-N-(1,1,1-trifluoro-3-hydroxybutan-2-yl)-6-[4-(trifluoromethyl)phenyl]-2,3-dihydropyridazine-4-carboxamide]
15 | > 2e-05 | 1.99e-07 |  | O=C(NC[C@H](O)CO)c1cc(-c2ccc(Cl)cc2)nn(-c2cccc(F)c2)c1=O [Example 156, 6-(4-Chlorophenyl)-N-[(2S)-2,3-dihydroxypropyl]-2-(3-fluorophenyl)-3-oxo-2,3-dihydropyridazine-4-carboxamide]
16 |  | 4.66e-07 | > 2e-05 | O=C(NC(CO)C1CCOC1)c1cc(-c2ccc(OC(F)F)cc2)nn(-c2cccc(F)c2)c1=O (single isomer, unassigned) [Example 147, 6-[4-(Difluoromethoxy)phenyl]-2-(3-fluorophenyl)-N-{(2-hydroxy-1-tetrahydrofuran-3-yl)ethyl}-3-oxo-2,3-dihydropyridazine-4-carboxamide]
17 | > 2e-05 | 1.43e-07 |  | COC(=O)[C@H](CO)NC(=O)c1cc(-c2ccc(Cl)cc2)nn(-c2cccc(F)c2)c1=O [Example 153, Methyl N-{[6-(4-chlorophenyl)-2-(3-fluorophenyl)-3-oxo-2,3-dihydropyridazin-4-yl]carbonyl}-L-serinate]
18 | > 2e-05 | 4.47e-08 |  | O=C(NCC(O)C(F)(F)F)c1cc(-c2ccc(OC(F)F)cc2)nn(-c2cccc(F)c2)c1=O (stereo not shown) [Example 120, 6-[4-(Difluoromethoxy)phenyl]-2-(3-fluorophenyl)-3-oxo-N-(3,3,3-trifluoro-2-hydroxypropyl)-2,3-dihydropyridazine-4-carboxamide]
19 | > 2e-05 | 1.92e-07 |  | C[C@@H](O)CNC(=O)c1cc(-c2ccc(Cl)cc2)nn(-c2cccc(F)c2)c1=O [Example 35, 6-(4-Chlorophenyl)-2-(3-fluorophenyl)-N-[(2R)-2-hydroxypropyl]-3-oxo-2,3-dihydropyridazine-4-carboxamide]
20 |  | 1.02e-07 | > 2e-05 | CC(CO)CNC(=O)c1cc(-c2ccc(Cl)cc2)nn(-c2cccc(F)c2)c1=O (single isomer, unassigned; (-)) [Example 202, (−)-6-(4-Chlorophenyl)-2-(3-fluorophenyl)-N-(3-hydroxy-2-methylpropyl)-3-oxo-2,3-dihydropyridazine-4-carboxamide]
21 | > 2e-05 | 4e-08 |  | Cc1ccc(-c2cc(C(=O)NCC(O)C(C)C)c(=O)n(-c3cc(F)cc(F)c3)n2)cc1 (stereo not shown) [Example 56, 2-(3,5-Difluorophenyl)-N-(2-hydroxy-3-methylbutyl)-6-(4-methylphenyl)-3-oxo-2,3-dihydropyridazine-4-carboxamide]
22 | > 2e-05 | 1.67e-08 |  | COCCC(CO)NC(=O)c1cc(-c2ccc(C(F)(F)F)cc2)nn(-c2cccc(F)c2)c1=O (single isomer, unassigned; (-)) [Example 313, (−)-2-(3-fluorophenyl)-N-(1-hydroxy-4-methoxybutan-2-yl)-3-oxo-6-[4-(trifluoromethyl)-phenyl]-2,3-dihydropyridazine-4-carboxamide]
23 | > 2e-05 | 3.42e-08 |  | O=C(NCC(O)C(F)(F)F)c1cc(-c2ccc(OC(F)F)cc2)nn(-c2cccc(F)c2)c1=O (single isomer, unassigned) [Example 121, 6-[4-(Difluoromethoxy)phenyl]-2-(3-fluorophenyl)-3-oxo-N-(3,3,3-trifluoro-2-hydroxypropyl)-2,3-dihydropyridazine-4-carboxamide]
